Source: ChEMBL document CHEMBL4229455, “Synthesis and anticancer activity of novel bisindolylhydroxymaleimide derivatives with potent GSK-3 kinase inhibition” (Bioorg Med Chem, 2018)

What was measured:
[1] = target: T1, Serine/threonine-protein kinase haspin (Homo sapiens, UniProt Q8TF76); assay: Inhibition of recombinant human haspin kinase domain expressed in bacteria using histone H3 (1 to 21 residues) peptide as substrate in presence of [gamma-33P]ATP
T1 sequence (Q8TF76 whole entry): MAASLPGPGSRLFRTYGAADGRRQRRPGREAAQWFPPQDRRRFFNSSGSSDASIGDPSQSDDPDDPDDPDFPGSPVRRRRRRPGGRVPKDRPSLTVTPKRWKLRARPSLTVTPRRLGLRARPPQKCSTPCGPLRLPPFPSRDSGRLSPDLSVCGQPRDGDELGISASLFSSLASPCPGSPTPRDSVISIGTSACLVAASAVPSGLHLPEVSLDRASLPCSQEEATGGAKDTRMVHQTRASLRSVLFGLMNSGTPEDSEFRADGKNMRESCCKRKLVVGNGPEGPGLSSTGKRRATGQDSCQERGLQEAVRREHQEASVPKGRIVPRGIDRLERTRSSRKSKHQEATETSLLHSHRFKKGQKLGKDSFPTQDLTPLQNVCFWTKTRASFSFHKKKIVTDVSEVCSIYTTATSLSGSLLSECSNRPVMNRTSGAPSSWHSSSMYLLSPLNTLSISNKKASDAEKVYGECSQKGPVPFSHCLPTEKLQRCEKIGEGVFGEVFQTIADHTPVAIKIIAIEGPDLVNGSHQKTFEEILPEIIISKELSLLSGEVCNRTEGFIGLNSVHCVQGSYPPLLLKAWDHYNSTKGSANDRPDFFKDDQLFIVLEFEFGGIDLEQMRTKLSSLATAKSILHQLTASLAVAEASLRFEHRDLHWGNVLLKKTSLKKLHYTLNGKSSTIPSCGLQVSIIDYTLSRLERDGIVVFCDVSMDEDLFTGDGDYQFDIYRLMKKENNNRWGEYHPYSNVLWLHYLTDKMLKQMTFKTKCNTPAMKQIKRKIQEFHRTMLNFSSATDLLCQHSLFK

[2] = target: Cyclin-dependent kinase 5/CDK5 activator 1 (Homo sapiens, UniProt Q00535); assay: Inhibition of recombinant full length human CDK5/p25 expressed in bacteria using histone H1 as substrate in presence of [gamma-33P]ATP
[3] = target: Dual specificity tyrosine-phosphorylation-regulated kinase 1A (Rattus norvegicus, UniProt Q63470); assay: Inhibition of recombinant rat DYRK1A kinase domain expressed in bacteria using KKISGRLSPIMTEQ as substrate in presence of [gamma-33P]ATP
[4] = target: Glycogen synthase kinase-3 (Sus scrofa, UniProt B2LUN4+I6LNT8); assay: Inhibition of domestic porcine brain full length GSK-3alpha/beta using GS-1 as substrate in presence of [gamma-33P]ATP; design: species or system Sus scrofa domesticus
[5] = target: T2, Serine/threonine-protein kinase haspin (Homo sapiens) (UniProt Q8TF76); assay: Inhibition of recombinant human haspin kinase domain expressed in bacteria assessed as residual activity at 10 uM using histone H3 (1 to 21 residues) peptide as substrate in presence of [gamma-33P]ATP
T2 sequence (whole entry): T1 sequence (Q8TF76 whole entry)

Aurora kinase B = Aurora kinase B (Homo sapiens, UniProt Q96GD4); assay: Inhibition of recombinant full length human aurora B expressed in baculovirus infected Sf9 insect cells assessed as residual activity at 10 uM using MBP as substrate in presence of [gamma-33P]ATP
[6] = target: Receptor-interacting serine/threonine-protein kinase 3 (Homo sapiens, UniProt Q9Y572); assay: Inhibition of recombinant full length human RIPK3 expressed in baculovirus infected Sf9 insect cells assessed as residual activity at 10 uM using MBP as substrate in presence of [gamma-33P]ATP
RPMI-8226 = assay: Cytotoxicity against human RPMI8226 cells assessed as cell growth at 10 uM after 48 hrs by SRB assay relative to control; type: functional; settings: RPMI-8226, 48 h, read-out: Activity
SR = assay: Cytotoxicity against human SR cells assessed as cell growth at 10 uM after 48 hrs by SRB assay relative to control; type: functional; settings: read-out: Activity
A549 = assay: Cytotoxicity against human A549 cells assessed as cell growth at 10 uM after 48 hrs by SRB assay relative to control; type: functional; settings: A549, 48 h, read-out: Activity
NCI-H460 = assay: Cytotoxicity against human NCI-H460 cells assessed as cell growth at 10 uM after 48 hrs by SRB assay relative to control; type: functional; settings: NCI-H460, 48 h, read-out: Activity
HCC 2998 = assay: Cytotoxicity against human HCC2998 cells assessed as cell growth at 10 uM after 48 hrs by SRB assay relative to control; type: functional; settings: HCC 2998, 48 h, read-out: Activity
SNB-75 = assay: Cytotoxicity against human SNB75 cells assessed as cell growth at 10 uM after 48 hrs by SRB assay relative to control; type: functional; settings: SNB-75, 48 h, read-out: Activity
M14 = assay: Cytotoxicity against human M14 cells assessed as cell growth at 10 uM after 48 hrs by SRB assay relative to control; type: functional; settings: M14, 48 h, read-out: Activity
SK-MEL-2 = assay: Cytotoxicity against human SK-MEL-2 cells assessed as cell growth at 10 uM after 48 hrs by SRB assay relative to control; type: functional; settings: SK-MEL-2, 48 h, read-out: Activity
OVCAR-3 = assay: Cytotoxicity against human OVCAR3 cells assessed as cell growth at 10 uM after 48 hrs by SRB assay relative to control; type: functional; settings: OVCAR-3, 48 h, read-out: Activity
NCI/ADR-RES = assay: Cytotoxicity against human NCI-ADR-RES cells assessed as cell growth at 10 uM after 48 hrs by SRB assay relative to control; type: functional; settings: read-out: Activity
SK-OV-3 = assay: Cytotoxicity against human SKOV3 cells assessed as cell growth at 10 uM after 48 hrs by SRB assay relative to control; type: functional; settings: SK-OV-3, 48 h, read-out: Activity
RXF 393 = assay: Cytotoxicity against human RXF393 cells assessed as cell growth at 10 uM after 48 hrs by SRB assay relative to control; type: functional; settings: RXF 393, 48 h, read-out: Activity
SN12C = assay: Cytotoxicity against human SN12C cells assessed as cell growth at 10 uM after 48 hrs by SRB assay relative to control; type: functional; settings: read-out: Activity
TK-10 = assay: Cytotoxicity against human TK10 cells assessed as cell growth at 10 uM after 48 hrs by SRB assay relative to control; type: functional; settings: TK-10, 48 h, read-out: Activity
DU-145 = assay: Cytotoxicity against human DU145 cells assessed as cell growth at 10 uM after 48 hrs by SRB assay relative to control; type: functional; settings: DU-145, 48 h, read-out: Activity
BT-549 = assay: Cytotoxicity against human BT549 cells assessed as cell growth at 10 uM after 48 hrs by SRB assay relative to control; type: functional; settings: BT-549, 48 h, read-out: Activity
MDA-MB-468 = assay: Cytotoxicity against human MDA-MB-468 cells assessed as cell growth at 10 uM after 48 hrs by SRB assay relative to control; type: functional; settings: MDA-MB-468, 48 h, read-out: Activity

Receptor-interacting serine/threonine-protein kinase 3, sequence (Q9Y572 whole entry, looked up): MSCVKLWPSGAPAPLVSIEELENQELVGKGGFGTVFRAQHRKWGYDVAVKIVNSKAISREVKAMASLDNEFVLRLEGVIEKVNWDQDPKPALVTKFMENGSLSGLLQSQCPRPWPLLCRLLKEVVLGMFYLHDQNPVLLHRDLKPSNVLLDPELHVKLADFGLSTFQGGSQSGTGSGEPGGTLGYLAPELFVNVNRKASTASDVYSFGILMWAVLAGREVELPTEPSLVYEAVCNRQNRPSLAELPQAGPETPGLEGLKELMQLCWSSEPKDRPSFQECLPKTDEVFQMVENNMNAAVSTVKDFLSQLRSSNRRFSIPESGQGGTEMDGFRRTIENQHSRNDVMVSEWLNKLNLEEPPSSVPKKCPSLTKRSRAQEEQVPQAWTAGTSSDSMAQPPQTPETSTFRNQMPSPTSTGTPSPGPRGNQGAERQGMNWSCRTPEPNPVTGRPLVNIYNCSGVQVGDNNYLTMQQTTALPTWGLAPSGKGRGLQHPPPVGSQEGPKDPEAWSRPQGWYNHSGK
Aurora kinase B, sequence (Q96GD4 whole entry): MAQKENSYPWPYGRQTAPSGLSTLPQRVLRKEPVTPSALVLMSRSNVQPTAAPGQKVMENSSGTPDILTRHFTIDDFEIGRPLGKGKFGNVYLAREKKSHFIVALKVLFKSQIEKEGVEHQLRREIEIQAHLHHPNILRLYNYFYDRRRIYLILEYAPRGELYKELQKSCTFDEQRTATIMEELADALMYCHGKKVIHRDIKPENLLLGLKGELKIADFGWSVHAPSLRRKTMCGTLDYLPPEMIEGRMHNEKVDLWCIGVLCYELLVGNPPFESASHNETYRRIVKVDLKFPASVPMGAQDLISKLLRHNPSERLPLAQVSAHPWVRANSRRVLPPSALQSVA
Cyclin-dependent kinase 5/CDK5 activator 1, sequence (Q00535 whole entry, the tested form may be a part): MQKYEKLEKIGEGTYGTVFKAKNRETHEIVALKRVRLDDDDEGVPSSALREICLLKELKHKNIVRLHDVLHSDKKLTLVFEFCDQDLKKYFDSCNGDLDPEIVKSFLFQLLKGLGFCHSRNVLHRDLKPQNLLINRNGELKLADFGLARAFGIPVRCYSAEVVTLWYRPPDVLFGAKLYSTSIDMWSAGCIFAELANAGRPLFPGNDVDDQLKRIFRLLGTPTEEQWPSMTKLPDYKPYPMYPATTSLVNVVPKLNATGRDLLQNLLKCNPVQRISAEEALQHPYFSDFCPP
Cyclin-dependent kinase 5/CDK5 activator 1, sequence (Q15078 whole entry, further chain, the tested form may be a part): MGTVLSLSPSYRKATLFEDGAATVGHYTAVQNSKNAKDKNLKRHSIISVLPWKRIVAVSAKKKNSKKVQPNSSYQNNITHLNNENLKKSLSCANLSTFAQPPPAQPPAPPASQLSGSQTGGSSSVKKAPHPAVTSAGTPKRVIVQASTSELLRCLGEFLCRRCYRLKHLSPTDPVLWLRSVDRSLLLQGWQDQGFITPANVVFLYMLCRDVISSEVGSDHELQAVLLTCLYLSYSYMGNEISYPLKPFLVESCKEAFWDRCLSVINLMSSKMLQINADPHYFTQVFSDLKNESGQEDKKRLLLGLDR

Structure (SMILES)	IC50 [1] [µM]	IC50 [2] [µM]	IC50 [3] [µM]	IC50 [4] [µM]	Activity [5] [%]	Activity (Aurora kinase B) [%]	Activity [6] [%]	growth at 10 µM (RPMI-8226) [%]	growth at 10 µM (SR) [%]	growth at 10 µM (A549) [%]	growth at 10 µM (NCI-H460) [%]	growth at 10 µM (HCC 2998) [%]	growth at 10 µM (SNB-75) [%]	growth at 10 µM (M14) [%]	growth at 10 µM (SK-MEL-2) [%]	growth at 10 µM (OVCAR-3) [%]	growth at 10 µM (NCI/ADR-RES) [%]	growth at 10 µM (SK-OV-3) [%]	growth at 10 µM (RXF 393) [%]	growth at 10 µM (SN12C) [%]	also measured
Cn1cc(C2=C(c3cn(C)c4ccccc34)C(=O)N(O)C2=O)c2ccccc21	> 10	> 10	> 10	3	118	84	100	79.3	75.4	87.8	99.5	106	90.3	105	102	111	102	101	82.8	94.5	growth at 10 µM (TK-10): 118%; growth at 10 µM (DU-145): 123%; growth at 10 µM (BT-549): 107%; growth at 10 µM (MDA-MB-468): 86.4%
O=C1C2=C(C(=O)N1O)c1cn(c3ccccc13)CCCCCCn1cc2c2ccccc21	> 10	> 10	> 10	> 10	134	97	108	92.9	91.9	108	100	110	91.4	102	120	106	108	106	119	106	growth at 10 µM (TK-10): 105%; growth at 10 µM (DU-145): 108%; growth at 10 µM (BT-549): 97.6%; growth at 10 µM (MDA-MB-468): 97.5%
O=C(O)CCCCCn1cc(C2=C(c3c[nH]c4ccccc34)C(=O)N(O)C2=O)c2ccccc21	> 10	> 10	2	0.75	113	63	100	101	100	98.2	103	119	86	92.9	99.4	99.3	106	81	101	105	growth at 10 µM (TK-10): 99%; growth at 10 µM (DU-145): 104%; growth at 10 µM (BT-549): 99.9%; growth at 10 µM (MDA-MB-468): 104%
